Measurements: paper PMC5307958 (Scientific Reports, 2017)
Entries after “also recorded” stand apart in the source; their conditions may differ. Where a SMILES comes first, the peptide text is derived from it. Bridges are numbered along the chain shown (N, C = ends).

Assays:
[1] = molecular target: T1, human BKα channel (ZERO isoform) expressed in HEK293 cells (Homo sapiens, UniProt Q12791); assay: Patch-clamp recording, inside-out patches, intracellular application; format: cell-based; conditions: 50 nM LS3 applied to intracellular (internal) side; n.s., N = 6
T1 construct: expressed in transfected cells; host or cells: HEK293 (ATCC), transient transfection with Lipofectamine 2000; EGFP cotransfected as a separate marker

[2] = system: mouse inferior colliculus (auditory midbrain); assay: Sound evoked activity within excitatory receptive field (eRF), systemic administration; conditions: for spikes within the eRF, representative eRF: baseline 522 spikes, BF 19.5 kHz
[3] = system: mAcetylcholine M3; assay: Competition radioligand binding (NIMH PDSP); conditions: radioligand QNB, measured 4 times
[4] = system: human BKα channel ZERO isoform expressed in HEK293 cells; assay: Phagemid display selection (panning); format: binding
From the text: A monovalent phagemid display library (library C, Mobitec) was sequentially panned against three sets of HEK293 cells (see below). For negative selection, cells expressed the human glycine receptor α1 (hGlyRα1, X52009) and the rat small conductance calcium-activated channel 2 (rSK2, U69882.1). For positive selection, cells expressed the human BKα channel ZERO isoform (NM_002238). The progress of the selection process was monitored after each panning round by titering and sequencing the phagemid DNA. With 6 randomized and 3 fixed amino acids, this library started with 3 × 10^7 unique sequences. LS3 was selected as one of the sequences expressing motifs that were enriched more than 1000 -fold. LS3 was synthesized as a TFA salt at 98–99% purity verified by HPLC and MS analysis (Genscript, Piscataway, NJ). Stocks were dissolved in water at 10 mM and aliquots were lyophilized and stored at −80 °C. As a secondary determination of identity and purity, in-house LC/MS was performed on a single quadrupole Mass Spectrophotometer (Agilent 6130) interfaced with a HPLC with a diode-array (UV-vis) detector (Agilent 1200).
HEK293 cells (ATCC, Manassas, VA) were grown according to standard procedures. Cells were cultured at 37 °C in a 5% CO2 atmosphere in Dulbecco’s modified Eagle’s medium with L-glutamine, sodium pyruvate and 10% fetal bovine serum (Invitrogen). Cell lines were split with trypsin/EDTA in Hanks’ balanced salt solution (Invitrogen) up to 25–30 cycles. For phage display, stable lines stably expressed rSK2 or hBKα ZERO isoform. Cells were transfected (Lipofectamine 2000, Invitrogen) with hGlyRα1 and used 48 hours later. For electrophysiological recordings, cells were transfected with hBKα ZERO isoform. Enhanced green fluorescent protein (EGFP) was cotransfected as a marker. Electrophysiological recordings were made 16–72 h after transfection. […]

[5] = system: hslo(+) human BK channel gene (ZERO isoform) expressed in slo-1(null) worms; assay: C. elegans crawl speed, hslo(+) rescue on slo-1 null background; format: in vivo, Caenorhabditis elegans; conditions: 750 μM LS3, 30 min; transgenic hslo(+) on slo-1(null) background; vs. slo-1(null): p < 0.001, N = 78–162
Protocol: (§1) Worms were cultivated at 20 °C as described with OP50 bacteria. Worms cultured on plates contaminated with fungi or other bacteria were excluded from this study. The reference wild-type strain was N2 Bristol. The reference slo-1(null) strain and background for transgenic strains was NM1968, harboring the previously characterized null allele, js379[29]. Multi-site gateway technology (Invitrogen) was used to construct plasmids. […] of the native slo-1 promoter (Pslo-1) and the traditional unc-54 UTR were used in combination with slo-1a(cDNA)::mCherry for a rescue construct. To test rescue with the human BK channel, an hslo(ZERO isoform, cDNA)::mCherry version was constructed. The slo-1(+) and hslo(+) plasmids were injected at a concentration of 20 and 10 ng/μl, respectively. The co-injection reporter PCFJ90 (1.25 ng/μl) was used to ensure proper transformation of the arrays. As such, JPS345 carried vxEx345, an extrachromosomal array containing [Pslo-1::slo-1::mCherry::unc-54UTR,Pmyo-2::mCherry::unc-54UTR]. JPS340 carried […], an extrachromosomal array containing [Pslo-1::hslo::mCherry::unc-54UTR,Pmyo-2::mCherry::unc-54UTR].
Age-matched day one adults were cleaned of bacteria by letting them crawl around on an unseeded plate and then moved into a puddle of NGM or peptide dissolved in NGM on another unseeded plate. […]

[6] = system: wild-type worms (N2 Bristol; BK channel ortholog SLO-1); assay: C. elegans crawl speed, wild-type; format: in vivo, Caenorhabditis elegans; conditions: for crawl speed relative to controls: 30 min pre-incubation in puddle, age-matched day one adults, tracked 1 min, p < 0.001; for effect on crawl speed: wild type, 30 min, p<0.001, N=81-210, planned Student's t-tests
Protocol: as §1
Age-matched day one adults were cleaned of bacteria by letting them crawl around on an unseeded plate and then moved into a puddle of NGM or peptide dissolved in NGM on another unseeded plate. NGM and peptide treatment groups were always run in tandem to control for behavioral variance. While much shorter than typical drug applications in C. elegans, brief application in liquid was chosen to avoid potential catabolic by-products of incubation on metabolically active E. coli. Higher LS3 concentrations were used to compensate. The puddle was refreshed 1–2 times as needed, but let to fully absorb into the agar by 30 minutes. After 30 minutes, crawl behavior was videoed (Flea2 camera, Point Grey Research, Canada; StreamPix 3, NorPix, Canada). Copper rings restricted movement to a proscribed area. The worms were tracked offline using custom macros (Image-Pro, MediaCybernetics, Rockville, MD) for 1 minute to obtain crawl speed (cm/min). Group means ± SEM for peptide-treated vs. vehicle-treated controls were compared at each concentration with Student’s t-tests. Rescue analysis was completed with two-way ANOVA (SigmaPlot, San Jose, CA). Crawl speeds for the peptide treated groups were also normalized to the performance of yoked controls. Normalized group means±SEM were compared vs. slo-1 null performance by two-way ANOVA.

[7] = Blood-brain barrier crossing inferred from functional activity in the IC; format: in vivo, mouse; conditions: inferred from suppression of sound evoked activity after topical (dura) or systemic (0.3 mg/kg I.P.) administration
Protocol: The temperature was maintained near 25 °C.

[8] = phage-displayed sequence CRRGLVQVC

T1 sequence (Q12791 1-1178 isoform Q12791-5): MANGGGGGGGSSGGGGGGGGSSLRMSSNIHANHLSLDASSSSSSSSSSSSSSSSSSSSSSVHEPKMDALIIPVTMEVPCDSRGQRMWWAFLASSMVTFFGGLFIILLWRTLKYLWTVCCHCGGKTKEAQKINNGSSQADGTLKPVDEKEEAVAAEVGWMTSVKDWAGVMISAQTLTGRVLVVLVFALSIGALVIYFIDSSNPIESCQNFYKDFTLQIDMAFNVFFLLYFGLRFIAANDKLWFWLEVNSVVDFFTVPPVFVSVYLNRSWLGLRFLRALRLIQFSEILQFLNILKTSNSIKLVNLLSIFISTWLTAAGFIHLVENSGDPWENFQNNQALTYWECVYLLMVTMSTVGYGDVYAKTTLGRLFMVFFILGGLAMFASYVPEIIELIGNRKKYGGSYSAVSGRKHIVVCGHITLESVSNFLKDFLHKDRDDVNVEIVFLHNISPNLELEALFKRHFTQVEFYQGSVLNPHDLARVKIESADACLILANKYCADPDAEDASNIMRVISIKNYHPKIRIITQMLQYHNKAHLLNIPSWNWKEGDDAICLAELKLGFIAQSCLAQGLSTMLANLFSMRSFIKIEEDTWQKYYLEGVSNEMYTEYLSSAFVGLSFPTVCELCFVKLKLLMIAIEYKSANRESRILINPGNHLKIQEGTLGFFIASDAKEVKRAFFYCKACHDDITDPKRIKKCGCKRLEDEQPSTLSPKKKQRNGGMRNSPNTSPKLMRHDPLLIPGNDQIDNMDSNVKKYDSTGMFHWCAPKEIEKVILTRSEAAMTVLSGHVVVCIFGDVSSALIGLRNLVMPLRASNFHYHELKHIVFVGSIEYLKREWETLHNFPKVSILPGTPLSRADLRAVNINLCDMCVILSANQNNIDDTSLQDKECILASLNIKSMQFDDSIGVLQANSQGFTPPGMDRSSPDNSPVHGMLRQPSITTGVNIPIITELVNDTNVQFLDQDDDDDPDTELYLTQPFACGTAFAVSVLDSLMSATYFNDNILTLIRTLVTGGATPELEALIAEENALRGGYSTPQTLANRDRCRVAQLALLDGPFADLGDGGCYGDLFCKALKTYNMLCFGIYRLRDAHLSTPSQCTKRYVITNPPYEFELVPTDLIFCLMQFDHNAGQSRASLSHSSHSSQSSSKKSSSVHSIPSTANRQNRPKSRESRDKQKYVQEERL

CC(C)C[C@@H]1NC(=O)CNC(=O)[C@H](CCCNC(=N)N)NC(=O)[C@H](CCCNC(=N)N)NC(=O)[C@@H](N)CSSC[C@@H](C(=O)O)NC(=O)[C@H](C(C)C)NC(=O)[C@H](CCC(N)=O)NC(=O)[C@H](C(C)C)NC1=O [LS3] (H-CRRGLVQVC-OH; disulfide 1-9; N-terminus and C-terminus assumed)
effect on Po (post vs. pre peptide) [1]: did not reduce Po; also recorded: Only when applied to the external side did LS3 significantly reduce Po
effect on sound evoked activity in the inferior colliculus ([2]; 0.3 mg/kg I.P. LS3): suppressed sound evoked activity in the inferior colliculus; also recorded: suppresses sound evoked activity in the IC when administered systemically
spikes within the eRF, representative eRF ([2]; systemic (0.3 mg/kg I.P.) LS3, 2 hrs): 41 spikes
spikes within the eRF, representative eRF ([2]; systemic (0.3 mg/kg I.P.) LS3, 5 hours): 37 spikes
reduction in spikes within the eRF ([2]; systemic (0.3 mg/kg I.P.) LS3, over 2 hours, mean, 47 units from 5 CBA mice): 85%
decrease in sound evoked activity within the receptive field, representative eRF ([2]; systemic (0.3 mg/kg I.P.) LS3, over 5 hours): 93%
time course of driven activity ([2]; systemic LS3, mean of 49 units, F(32,936) = 7.724 P < 0.0001): continued to decline out to 7 hours
% inhibition by 10 µM LS3 [3]: 11.5%
enrichment of motifs expressed by the sequence ([4]; criterion for selection of LS3): more than 1000 fold
enrichment of motif RRXXXXV during selection [4, 8]: ~ 4000 fold
enrichment of motif XRGXXXV during selection [4, 8]: ~ 3000 fold
LS3-induced slowing response (reduction in crawl speed) [5]: rescued the LS3-induced slowing response
crawl speed relative to controls ([6]; 250 μM LS3 in NGM): ~ 85%
crawl speed relative to controls ([6]; 750 μM LS3 in NGM): ~ 70%
effect on crawl speed ([6]; 75 µM LS3 vs. vehicle): reduced
effect on crawl speed ([6]; 250 µM LS3 vs. vehicle): reduced
effect on crawl speed ([6]; 750 µM LS3 vs. vehicle): reduced
effect on crawl speed / locomotion ([6]; wild-type, LS3 in NGM, 30 min bath, WT vs. slo-1(null) at 250 and 750 μM: p < 0.05 and p < 0.001, N = 139–372): reduced crawl speed; also recorded: slowed locomotion in a concentration-dependent manner
ability to cross the BBB [7]: can cross the BBB; also recorded: rapidly crosses the BBB after systemic delivery; also recorded: crosses the blood-brain barrier (BBB)
